# Experimental data taken from patent publication US20230333087A1, “METHODS FOR MONITORING PATIENT RESPONSE TO TREATMENT OF RETINAL OXIDATIVE DISEASES” (BioJiva LLC, priority 2022, published 2023).
# Columns and labels:
# [1] = system: 4-HNE and 4-HHE formation; settings: present in lipid bilayers; cited from earlier work
# [2] = system: iron-induced retinal autofluorescence and degeneration; experiment: Iron-induced retinal autofluorescence and degeneration, cSLO and OCT imaging 1 week after intravitreal iron; format: in vivo, C57BL/6J mice; settings: DHA diet versus previous study with regular chow without DHA (LabDiet 5001)
# Protocol: To evaluate the protective effect of 0.25% D-DHA diet, confocal scanning laser ophthalmoscopy (cSLO) and optical coherence tomography (OCT) were employed for in vivo imaging at 1 week after injections. For the cSLO imaging, both blue autofluorescence (BAF) and near-infra autofluorescence (IRAF) were performed.
# Adult male wild-type C57BL/6J mice (Stock No.000664, Jackson Labs, Bar Harbor, ME, USA) were housed in standard conditions under cyclic light (12 h:12 h light-dark cycle). Mice had ad libitum access to water and food. Beginning at 2 mo of age, mice were placed on the AIN93G diet described above, supplemented with 0.25% D-DHA or DHA (control diet) for 1 week, 2 weeks, 3 weeks, or 4 weeks prior to the intravitreal injection. Mice were given an intravitreal injection of 1 µl 0.5 mM ferric ammonium citrate diluted in 0.9% NaCl (saline) (MP Biomedicals LLC, Santa Ana, CA) or
# 1 µl of saline as control. Intravitreal injections were performed as previously described ^54. Mice were continued on respective diet until their final evaluation. All housing and procedures were performed according to the NIH Guide for the Care and Use of Experimental Animals and approved by the University of Pennsylvania Animal Care and Use Committee.
# Mice were given general anesthesia and placed on a platform. Pupils were dilated with 1% tropicamide saline solution (Akorn, Inc., Lake Forest, IL). Optical coherence tomography (OCT) imaging was performed for visualization of the retinal structure by using a Bioptigen
# Envisu (R2200, Bioptigen Inc., Durham, NC, USA) coupled to a broadband LED light source (T870-HP, Superlum Diodes, Ltd, Ireland). Confocal scanning laser ophthalmoscopy (cSLO) (Spectralis HRA, Heidelberg Engineering, Franklin, MA, USA) was used for visualization of retinal AF using BluePeak™ or simply blue AF (488 nm excitation) and near-infrared AF (787 nm excitation) imaging modes.
# [3] = system: human RPE cell line ARPE-19; settings: high-intensity light exposure; cited from earlier work
# [4] = clinical trials; cited from earlier work
# LPO and cell death = settings: FRDA, INAD, PSP; cited from earlier work
compound,measurement,setting,value
[2H]C([2H])(/C=C\CCCCC)/C=C\CCCCCCCC(=O)O [D2-linoleic acid],4-HNE and 4-HHE formation,[1],downregulated not just 4-HNE but also 4-HHE formation
"docosahexaenoic acid [DHA, reference compound]",severity of IVT iron induced damage,[2],less severe
same,oxidative stress and LPO,[3],increased oxidative stress and LPO
"[2H]C([2H])(/C=C\CCCCC)/C=C\CCCCCCCC(=O)OCC [RT001, 11,11-D2-Lin]",safety and tolerability,[4],notable safety and tolerability
same,LPO and cell death,LPO and cell death,inhibited LPO and rescued cell death
